Measurements from paper PMC9866191, “Novel 9-Benzylaminoacridine Derivatives as Dual Inhibitors of Phosphodiesterase 5 and Topoisomerase II for the Treatment of Colon Cancer” (Molecules, 2023).

Assays:
NCI/ADR-RES = test: NCI-60 one-dose screen; format: cell-based; settings: Homo sapiens, Ovarian Cancer panel, single dose 10^−5 M, read-out: Growth inhibition %
OVCAR-3 = test: NCI-60 one-dose screen; format: cell-based; settings: Homo sapiens; OVCAR-3, Ovarian Cancer panel; single dose 10^−5 M; read-out: Growth inhibition %
UO-31 = test: NCI-60 one-dose screen; format: cell-based; settings: Homo sapiens; UO-31, Renal Cancer panel; single dose 10^−5 M; read-out: Growth inhibition %
A549/ATCC = test: NCI-60 one-dose screen; format: cell-based; settings: Homo sapiens, Non-small cell lung panel, single dose 10^−5 M, read-out: Growth inhibition %
MDA-MB-468 = test: NCI-60 one-dose screen; format: cell-based; settings: Homo sapiens; MDA-MB-468, Breast Cancer panel; single dose 10^−5 M; read-out: Growth inhibition %
NCI-H322M = test: NCI-60 one-dose screen; format: cell-based; settings: Homo sapiens, Non-small cell lung panel, single dose 10^−5 M, read-out: Growth inhibition %
NCI-H460 = test: NCI-60 one-dose screen; format: cell-based; settings: Homo sapiens; NCI-H460, Non-small cell lung panel; single dose 10^−5 M; read-out: Growth inhibition %
HOP-62 = test: NCI-60 one-dose screen; format: cell-based; settings: Homo sapiens; HOP-62, Non-small cell lung panel; single dose 10^−5 M; read-out: Growth inhibition %
MDA-MB-435 = test: NCI-60 one-dose screen; format: cell-based; settings: Homo sapiens; MDA-MB-435, Melanoma panel; single dose 10^−5 M; read-out: Growth inhibition %
NCI-H522 = test: NCI-60 one-dose screen; format: cell-based; settings: Homo sapiens; NCI-H522, Non-small cell lung panel; single dose 10^−5 M; read-out: Growth inhibition %
MOLT-4 = test: NCI-60 one-dose screen; format: cell-based; settings: Homo sapiens; MOLT-4, Leukemia panel; single dose 10^−5 M; read-out: Growth inhibition %
MCF7 = test: NCI-60 one-dose screen; format: cell-based; settings: Homo sapiens; MCF7, Breast Cancer panel; single dose 10^−5 M; read-out: Growth inhibition %
SNB-75 = test: NCI-60 one-dose screen; format: cell-based; settings: Homo sapiens; SNB-75, CNS Cancer panel; single dose 10^−5 M; read-out: Growth inhibition %
HOP-92 = test: NCI-60 one-dose screen; format: cell-based; settings: Homo sapiens; HOP-92, Non-small cell lung panel; single dose 10^−5 M; read-out: Growth inhibition %
CAKI-1 = test: NCI-60 one-dose screen; format: cell-based; settings: Homo sapiens; CAKI-1, Renal Cancer panel; single dose 10^−5 M; read-out: Growth inhibition %
HS 578T = test: NCI-60 one-dose screen; format: cell-based; settings: Homo sapiens, Breast Cancer panel, single dose 10^−5 M, read-out: Growth inhibition %
SK-MEL-28 = test: NCI-60 one-dose screen; format: cell-based; settings: Homo sapiens; SK-MEL-28, Melanoma panel; single dose 10^−5 M; read-out: Growth inhibition %
MDA-MB-231/ATCC = test: NCI-60 one-dose screen; format: cell-based; settings: Homo sapiens, Breast Cancer panel, single dose 10^−5 M, read-out: Growth inhibition %
SN12C = test: NCI-60 one-dose screen; format: cell-based; settings: Homo sapiens, Renal Cancer panel, single dose 10^−5 M, read-out: Growth inhibition %
NCI-H23 = test: NCI-60 one-dose screen; format: cell-based; settings: Homo sapiens; NCI-H23, Non-small cell lung panel; single dose 10^−5 M; read-out: Growth inhibition %
ACHN = test: NCI-60 one-dose screen; format: cell-based; settings: Homo sapiens, Renal Cancer panel, single dose 10^−5 M, read-out: Growth inhibition %
HCT-116 [1] = test: NCI-60 one-dose screen; format: cell-based; settings: Homo sapiens, read-out: Growth inhibition %
786-0 = test: NCI-60 one-dose screen; format: cell-based; settings: Homo sapiens; 786-0, Renal Cancer panel; single dose 10^−5 M; read-out: Growth inhibition %
OVCAR-4 = test: NCI-60 one-dose screen; format: cell-based; settings: Homo sapiens; OVCAR-4, Ovarian Cancer panel; single dose 10^−5 M; read-out: Growth inhibition %
PDE5A = biological target: T1, PDE5A (Homo sapiens, UniProt O76074); test: Phosphodiesterase 5 HTRF cGMP assay; format: biochemical; settings: for IC50: means ± S.D. (n = 4), read-out: PDE5 IC50; for inhibition at 10 µM: read-out: PDE5 % Inhibition at 10 μM
T1 construct: purchased BPS Bioscience, San Diego, CA, USA
Experimental: All the synthesized acridine derivatives were tested for their in vitro ability to inhibit PDE5A at a screening dose of 10 µM.
The enzyme activities of phosphodiesterase 5 (PDE5) were measured using an HTRF cGMP assay kit (Cisbio, Codolet, France). […] Afterward, the HTRF reagent (cGMP-d2 and anti-cGMP-cryptate) was added for 1 h at 25 °C, and PDE activity was assayed on an HTRF reader (Tecan Infinite F200 Pro).

IGROV1 = test: NCI-60 one-dose screen; format: cell-based; settings: Homo sapiens, IGROV-1; IGROV1, Ovarian Cancer panel; single dose 10^−5 M; read-out: Growth inhibition %
[2] = system: panel of 60 human tumor cell lines; test: NCI 60-cell line one-dose screen (mean); format: cell-based; settings: mean of the 60 cell lines, single dose 10^−5 M, read-out: Mean % Growth Inhibition
Experimental: The newly synthesized compounds were screened for their in vitro anticancer activity at the Developmental Therapeutic Program (DTP) of the National Cancer Institute (NCI). The screening involved a panel of 60 human tumor cell lines consisting of 9 tissue types to screen for potential anti-cancer agents. The primary screening of submitted compounds was performed by testing a single dose (10^−5 M) in the full NCI-60 panel. The detailed % inhibition by the tested compounds against the 60 cell lines is shown in Tables S1–S3 in the Supporting Information.

SF-268 = test: NCI-60 one-dose screen; format: cell-based; settings: Homo sapiens; SF-268, CNS Cancer panel; single dose 10^−5 M; read-out: Growth inhibition %
HL-60(TB) = test: NCI-60 one-dose screen; format: cell-based; settings: Homo sapiens, Leukemia panel, single dose 10^−5 M, read-out: Growth inhibition %
HCT-116 [3] = test: MTT cell proliferation assay, HCT-116; settings: for % Inhibition at 10 µM: 72 h MTT, means ± SD; for IC50: read-out: IC50 μM, 72 h MTT, means ± SD, three experiments

Row | Compound | inhibition at 10 µM (NCI/ADR-RES) | inhibition at 10 µM (OVCAR-3) | inhibition at 10 µM (UO-31) | inhibition at 10 µM (A549/ATCC) | inhibition at 10 µM (MDA-MB-468) | inhibition at 10 µM (NCI-H322M) | inhibition at 10 µM (NCI-H460) | inhibition at 10 µM (HOP-62) | inhibition at 10 µM (MDA-MB-435) | inhibition at 10 µM (NCI-H522) | inhibition at 10 µM (MCF7) | inhibition at 10 µM (SNB-75) | inhibition at 10 µM (CAKI-1) | inhibition at 10 µM (HS 578T) | inhibition at 10 µM (SK-MEL-28) | inhibition at 10 µM (MDA-MB-231/ATCC) | inhibition at 10 µM (SN12C) | inhibition at 10 µM (NCI-H23) | inhibition at 10 µM (ACHN) | inhibition at 10 µM (HCT-116 [1]) | other results
1 | COc1cccc(CNc2c3ccccc3nc3ccccc23)c1OC [Compound 16, Acridin-9-yl-(2,3-dimethoxybenzyl)-amine] | 66.8% | 34.9% | 74.8% | 69.7% | 98.9% | 58.4% | 88.4% | 48.8% | 53.7% | 59.9% | 89.9% | 32% | 66.3% | 35.7% | 33.9% | 58.1% | 69.1% | 67.6% | 78.9% | 88.2% | inhibition at 10 µM (MOLT-4): 82.2%; inhibition at 10 µM (HOP-92): 102%; inhibition at 10 µM (786-0): 61.2%; inhibition at 10 µM (OVCAR-4): 63.4%; IC50 (PDE5A): > 10 µM; inhibition at 10 µM (PDE5A): 36.7 ± 8.14%; inhibition at 10 µM (IGROV1): 76.8%; inhibition at 10 µM [2]: 63.9%; inhibition at 10 µM (SF-268): 38.3%
2 | Fc1ccc(CNc2c3ccccc3nc3ccccc23)cc1F [Compound 22, Acridin-9-yl-(3,4-difluorobenzyl)-amine] | 72.4% | 31.1% | 84.5% | 70.9% | 111% | 61% | 85.4% | 48.7% | 50.8% | 63% | 87.1% | 33.8% | 74.7% | 35.2% | 17.6% | 65.2% | 70.3% | 64.8% | 80.7% | 91.8% | inhibition at 10 µM (HL-60(TB)): 65.5%; inhibition at 10 µM (HOP-92): 109%; inhibition at 10 µM (786-0): 68.5%; inhibition at 10 µM (OVCAR-4): 64.6%; % Inhibition at 10 µM (HCT-116 [3]): 56.92 ± 0.61%; IC50 (HCT-116 [3]): 6.99 ± 0.17 µM; IC50 (PDE5A): > 10 µM; inhibition at 10 µM (PDE5A): 36.2 ± 9.78%; inhibition at 10 µM (IGROV1): 77.2%; inhibition at 10 µM [2]: 64.8%; inhibition at 10 µM (SF-268): 42.8%
3 | COc1ccc2nc3ccccc3c(NCc3ccc(C)cc3)c2c1 [Compound 26, (2-Methoxyacridin-9-yl)-(4-methylbenzyl)-amine] | 76.2% | 53.1% | 86.7% | 80.7% | 119% | 69.7% | 90% | 61% | 57.8% | 73.6% | 96.6% | 53.4% | 73.8% | 57.3% | 33.6% | 66.4% | 76.4% | 71.7% | 83.7% | 91.4% | inhibition at 10 µM (HL-60(TB)): 100%; inhibition at 10 µM (MOLT-4): 99.7%; inhibition at 10 µM (786-0): 84.2%; inhibition at 10 µM (OVCAR-4): 81.5%; % Inhibition at 10 µM (HCT-116 [3]): 38.11 ± 1.35%; IC50 (PDE5A): 0.83 ± 0.12 µM; inhibition at 10 µM (PDE5A): 88.1 ± 4.28%; inhibition at 10 µM (IGROV1): 82.8%; inhibition at 10 µM [2]: 79.9%; inhibition at 10 µM (SF-268): 51.6%
4 | COc1ccc2nc3ccccc3c(NCc3ccc(Cl)cc3)c2c1 [Compound 29, (4-Chlorobenzyl)-(2-methoxyacridin-9-yl)-amine] | 77.1% | 49% | 98.1% | 76.4% | 131% | 75.4% | 87.5% | 57.6% | 75.9% | 65.3% | 156% | 42.4% | 78.6% | 64% | 92.9% | 75.7% | 77.9% | 71.7% | 82.9% | 93.2% | inhibition at 10 µM (HL-60(TB)): 164%; inhibition at 10 µM (MOLT-4): 108%; inhibition at 10 µM (786-0): 177%; inhibition at 10 µM (OVCAR-4): 75.5%; % Inhibition at 10 µM (HCT-116 [3]): 28.83 ± 2.64%; IC50 (PDE5A): 5.35 ± 1.01 µM; inhibition at 10 µM (PDE5A): 66.1 ± 3.27%; inhibition at 10 µM (IGROV1): 83.7%; inhibition at 10 µM [2]: 93.3%; inhibition at 10 µM (SF-268): 46.5%
5 | Cc1ccc2nc3ccccc3c(NCc3ccccc3)c2c1 [Compound 30, Benzyl-(2-methylacridin-9-yl)-amine] | 70.2% | 34% | 81.7% | 59.8% | 111% | 59.1% | 82.9% | 56.5% | 41.8% | 63% | 88.8% | 35% | 64.5% | 30.2% | 22% | 64.2% | 74.5% | 64.2% | 76.8% | 90.6% | inhibition at 10 µM (HL-60(TB)): 59.4%; inhibition at 10 µM (HOP-92): 107%; inhibition at 10 µM (786-0): 65.7%; inhibition at 10 µM (OVCAR-4): 67.2%; % Inhibition at 10 µM (HCT-116 [3]): 68.46 ± 1.55%; IC50 (HCT-116 [3]): 5.78 ± 0.11 µM; IC50 (PDE5A): 4.52 ± 1.74 µM; inhibition at 10 µM (PDE5A): 68.8 ± 7.05%; inhibition at 10 µM (IGROV1): 84.2%; inhibition at 10 µM [2]: 64.5%; inhibition at 10 µM (SF-268): 31%
